Test results published in BigSolDB 2.1.

CC(=O)N[C@H](C(=O)O)C(C)C
solubility (mole fraction)
Details | 283.15 K | 288.15 K | 293.15 K | 298.15 K | 303.15 K | 308.15 K | 313.15 K | 318.15 K | 323.15 K | 328.15 K
in 1,4-dioxane | – | 0.0324 | 0.0363 | 0.0427 | 0.0495 | 0.06 | 0.0712 | 0.0805 | 0.0921 | 0.109
in 2-butanone | 0.00606 | 0.00748 | 0.00907 | 0.0112 | 0.0141 | 0.0176 | 0.021 | 0.0245 | 0.0292 | –
in acetone | 0.0102 | 0.0133 | 0.0163 | 0.0196 | 0.0238 | 0.0284 | 0.0333 | 0.039 | 0.0437 | –
in acetonitrile | 0.00204 | 0.0026 | 0.00352 | 0.00464 | 0.0055 | 0.00668 | 0.00792 | 0.00909 | 0.0105 | –
in dimethyl carbonate | 0.00116 | 0.00139 | 0.00169 | 0.0021 | 0.00261 | 0.00331 | 0.00395 | 0.00489 | 0.00611 | –
in ethyl acetate | 0.00279 | 0.00342 | 0.00403 | 0.00487 | 0.006 | 0.00718 | 0.00847 | 0.01 | 0.0119 | –
in isobutanol | 0.0341 | 0.0396 | 0.0465 | 0.0566 | 0.0648 | 0.0777 | 0.0881 | 0.101 | 0.114 | –
in isopropanol | 0.0401 | 0.048 | 0.0558 | 0.0662 | 0.0782 | 0.091 | 0.104 | 0.12 | 0.134 | –
in methyl acetate | 0.00339 | 0.00393 | 0.00485 | 0.0058 | 0.00694 | 0.0082 | 0.00972 | 0.0112 | 0.0128 | –
in n-butanol | 0.0371 | 0.0428 | 0.0506 | 0.0595 | 0.0685 | 0.0786 | 0.0902 | 0.104 | 0.115 | –
in n-propanol | 0.0449 | 0.0512 | 0.06 | 0.0747 | 0.0876 | 0.111 | 0.13 | 0.151 | 0.171 | –
in water | 0.00557 | 0.00611 | 0.0066 | 0.00748 | 0.00872 | 0.01 | 0.0116 | 0.0137 | 0.0159 | –
